Experimental data published in patent US20260256792A1, “TREATMENT OF CHRONIC SPONTANEOUS URTICARIA BY ADMINISTERING (R)-2-[3-[4-AMINO-3-(2-FLUORO-4-PHENOXY-PHENYL)PYRAZOLO[3,4-D]PYRIMIDIN-1-YL]PIPERIDINE-1-CARBONYL]-4-METHYL-4-[4-(OXETAN-3-YL)PIPERAZIN-1-YL]PENT-2-ENENITRILE” (priority 2023, published 2026).

Test system: moderate-to-severe chronic spontaneous urticaria (CSU)
Experiment: Phase 2 CSU study: urticaria activity score over 7 days (UAS7)
Format: in vivo, human
Details: Omalizumab-Naïve
Excerpt: The study comprises a 12 week, randomized, double-blind, placebo-controlled, multi-center, dose-ranging efficacy and safety phase, followed by a 40 week open label extension (OLE) phase (see FIG. 1). The study consists of three phases and an optional OLE phase. […] Clinically, CSU is characterized by the spontaneous and recurrent appearance of pruritic hives. The proposed primary endpoints were the UAS7 at Week 12 in EU and EU reference countries and the ISS7 in the US. Regardless of where a participant was from, all assessments were the same. The UAS7 score is a composite score containing both the HSS7 and the ISS7. This allowed a global assessment of the two key components of urticaria: hives and itch. […] The UAS is a validated PRO measure. […] The daily UAS scores range from 0 to 6 point/day. […] Patients were to complete the UAS using the e-diary. […] The following secondary endpoints were to be analyzed using the same approach as for the primary endpoint: • Change from baseline in UAS7 at Week 4 • Change from baseline in UAS7 at Week 12 (for US and US reference countries) • Change from baseline in ISS7 at Week 12 (except US and US reference countries) • Change from baseline in HSS7 at Week 12 The following responder secondary endpoints were to be analyzed using the Cochran-Mantel-Haenszel test adjusted by region: • Proportion of participants with UAS7<6 at Week 12 • Proportion of participants with UAS7=0 at Week 12 Participants who received selected prohibited medications and/or rescue medications were to be considered as non-responders for time points after the medication usage. For other participants, all available data including those collected during the off-treatment period were to be used to determine the responder/non-responder status. Missing data were to be considered as non-responders.

[1] = Baseline Total IgE (IU/mL) ≥300, 400 mg BID
[2] = Baseline Total IgE (IU/mL) ≥300, 400 mg QPM
[3] = Baseline Total IgE (IU/mL) ≥300, 400 mg TID
[4] = Baseline UAS7 score <28, 400 mg BID
[5] = Baseline UAS7 score <28, 400 mg QPM
[6] = Baseline UAS7 score <28, 400 mg TID
[7] = Baseline UAS7 score ≥28, 400 mg BID
[8] = Baseline UAS7 score ≥28, 400 mg QPM
[9] = Baseline UAS7 score ≥28, 400 mg TID
[10] = Duration of disease (years) 2-10, 400 mg BID
[11] = Duration of disease (years) 2-10, 400 mg QPM
[12] = Duration of disease (years) 2-10, 400 mg TID
[13] = Duration of disease (years) <2, 400 mg BID
[14] = Duration of disease (years) <2, 400 mg QPM
[15] = Duration of disease (years) <2, 400 mg TID
[16] = Duration of disease (years) >10, 400 mg BID
[17] = Duration of disease (years) >10, 400 mg QPM
[18] = Duration of disease (years) >10, 400 mg TID
[19] = Ethnicity Non-Hispanic, 400 mg BID
[20] = Ethnicity Non-Hispanic, 400 mg QPM

Compound: CC(C)(C=C(C#N)C(=O)N1CCC[C@@H](n2nc(-c3ccc(Oc4ccccc4)cc3F)c3c(N)ncnc32)C1)N1CCN(C2COC2)CC1 [rilzabrutinib, (R)-2-[3-[4-amino-3-(2-fluoro-4-phenoxy-phenyl)pyrazolo[3,4-d]pyrimidin-1-yl]piperidine-1-carbonyl]-4-methyl-4-[4-(oxetan-3-yl)piperazin-1-yl]pent-2-enenitrile]
- Change from Baseline in UAS7 at Week 12: Mean (SD) (Baseline Total IgE (IU/mL) ≥100, 400 mg TID): −17.31 (9.51)
- Change from Baseline in UAS7 at Week 12: LS Mean (SE) [1]: −14.22 (3.59)
- Change from Baseline in UAS7 at Week 12: LS Mean Diff vs. placebo (95% CI) [1]: −1.77 (−12.00, 8.47)
- Change from Baseline in UAS7 at Week 12: LS Mean (SE) [2]: −8.04 (3.57)
- Change from Baseline in UAS7 at Week 12: LS Mean Diff vs. placebo (95% CI) [2]: 4.42 (−5.58, 14.42)
- Change from Baseline in UAS7 at Week 12: Mean (SD) [2]: −9.60 (9.52)
- Change from Baseline in UAS7 at Week 12: LS Mean (SE) [3]: −14.94 (3.46)
- Change from Baseline in UAS7 at Week 12: LS Mean Diff vs. placebo (95% CI) [3]: −2.48 (−12.37, 7.41)
- Change from Baseline in UAS7 at Week 12: Mean (SD) [3]: −16.12 (9.22)
- Change from Baseline in UAS7 at Week 12: LS Mean Diff vs. placebo (95% CI) [4]: −4.49 (−12.35, 3.38)
- Change from Baseline in UAS7 at Week 12: Mean (SD) [4]: −11.43 (8.06)
- Change from Baseline in UAS7 at Week 12: LS Mean (SE) [5]: −5.87 (3.45)
- Change from Baseline in UAS7 at Week 12: LS Mean Diff vs. placebo (95% CI) [5]: −1.46 (−10.06, 7.14)
- Change from Baseline in UAS7 at Week 12: Mean (SD) [5]: −8.39 (3.86)
- Change from Baseline in UAS7 at Week 12: LS Mean Diff vs. placebo (95% CI) [6]: −7.34 (−15.21, 0.52)
- Change from Baseline in UAS7 at Week 12: Mean (SD) [6]: −13.43 (7.05)
- Change from Baseline in UAS7 at Week 12: LS Mean (SE) [7]: −17.23 (2.81)
- Change from Baseline in UAS7 at Week 12: LS Mean Diff vs. placebo (95% CI) [7]: −4.13 (−11.78, 3.52)
- Change from Baseline in UAS7 at Week 12: Mean (SD) [7]: −16.73 (14.20)
- Change from Baseline in UAS7 at Week 12: LS Mean (SE) [8]: −11.17 (2.39)
- Change from Baseline in UAS7 at Week 12: LS Mean Diff vs. placebo (95% CI) [8]: 1.94 (−5.16, 9.03)
- Change from Baseline in UAS7 at Week 12: LS Mean (SE) [9]: −19.91 (2.64)
- Change from Baseline in UAS7 at Week 12: LS Mean Diff vs. placebo (95% CI) [9]: −6.81 (−14.23, 0.62)
- Change from Baseline in UAS7 at Week 12: Mean (SD) [9]: −22.66 (12.35)
- Change from Baseline in UAS7 at Week 12: Mean (SD) (Baseline weight (kg) <72.9 (Median), 400 mg BID): −12.97 (9.84)
- Change from Baseline in UAS7 at Week 12: Mean (SD) (Baseline weight (kg) <72.9 (Median), 400 mg QPM): −7.98 (7.20)
- Change from Baseline in UAS7 at Week 12: Mean (SD) (Baseline weight (kg) <72.9 (Median), 400 mg TID): −20.83 (13.25)
- Change from Baseline in UAS7 at Week 12: LS Mean (SE) [10]: −12.88 (3.03)
- Change from Baseline in UAS7 at Week 12: LS Mean Diff vs. placebo (95% CI) [10]: −0.05 (−8.24, 8.14)
- Change from Baseline in UAS7 at Week 12: Mean (SD) [10]: −15.56 (14.75)
- Change from Baseline in UAS7 at Week 12: LS Mean (SE) [11]: −9.73 (2.58)
- Change from Baseline in UAS7 at Week 12: LS Mean Diff vs. placebo (95% CI) [11]: 3.11 (−4.51, 10.72)
- Change from Baseline in UAS7 at Week 12: Mean (SD) [11]: −10.83 (9.70)
- Change from Baseline in UAS7 at Week 12: LS Mean (SE) [12]: −16.44 (3.07)
- Change from Baseline in UAS7 at Week 12: LS Mean Diff vs. placebo (95% CI) [12]: −3.61 (−11.80, 4.58)
- Change from Baseline in UAS7 at Week 12: Mean (SD) [12]: −17.51 (11.39)
- Change from Baseline in UAS7 at Week 12: LS Mean (SE) [13]: −16.30 (2.66)
- Change from Baseline in UAS7 at Week 12: LS Mean Diff vs. placebo (95% CI) [13]: −9.24 (−17.02, −1.46)
- Change from Baseline in UAS7 at Week 12: Mean (SD) [13]: −14.54 (10.00)
- Change from Baseline in UAS7 at Week 12: LS Mean (SE) [14]: −10.62 (3.36)
- Change from Baseline in UAS7 at Week 12: LS Mean Diff vs. placebo (95% CI) [14]: −3.55 (−12.28, 5.17)
- Change from Baseline in UAS7 at Week 12: LS Mean (SE) [15]: −17.20 (3.03)
- Change from Baseline in UAS7 at Week 12: LS Mean Diff vs. placebo (95% CI) [15]: −10.14 (−18.42, −1.86)
- Change from Baseline in UAS7 at Week 12: Mean (SD) [15]: −19.20 (11.00)
- Change from Baseline in UAS7 at Week 12: LS Mean (SE) [16]: 8.87 (12.67)
- Change from Baseline in UAS7 at Week 12: LS Mean Diff vs. placebo (95% CI) [16]: 14.79 (−14.26, 43.85)
- Change from Baseline in UAS7 at Week 12: Mean (SD) [16]: −1.83 (NC)
- Change from Baseline in UAS7 at Week 12: LS Mean Diff vs. placebo (95% CI) [17]: 4.87 (−13.68, 23.41)
- Change from Baseline in UAS7 at Week 12: Mean (SD) [17]: −4.70 (7.74)
- Change from Baseline in UAS7 at Week 12: LS Mean (SE) [18]: −18.73 (5.22)
- Change from Baseline in UAS7 at Week 12: LS Mean Diff vs. placebo (95% CI) [18]: −12.81 (−29.81, 4.20)
- Change from Baseline in UAS7 at Week 12: Mean (SD) [18]: −23.13 (14.76)
- Change from Baseline in UAS7 at Week 12: LS Mean (SE) (Ethnicity Hispanic, 400 mg BID): −10.31 (3.59)
- Change from Baseline in UAS7 at Week 12: LS Mean Diff vs. placebo (95% CI) (Ethnicity Hispanic, 400 mg BID): 2.24 (−7.72, 12.19)
- Change from Baseline in UAS7 at Week 12: Mean (SD) (Ethnicity Hispanic, 400 mg BID): −10.23 (11.81)
- Change from Baseline in UAS7 at Week 12: LS Mean (SE) (Ethnicity Hispanic, 400 mg QPM): −8.80 (2.97)
- Change from Baseline in UAS7 at Week 12: LS Mean Diff vs. placebo (95% CI) (Ethnicity Hispanic, 400 mg QPM): 3.74 (−5.35, 12.83)
- Change from Baseline in UAS7 at Week 12: Mean (SD) (Ethnicity Hispanic, 400 mg QPM): −10.26 (9.92)
- Change from Baseline in UAS7 at Week 12: LS Mean (SE) (Ethnicity Hispanic, 400 mg TID): −13.76 (3.78)
- Change from Baseline in UAS7 at Week 12: LS Mean Diff vs. placebo (95% CI) (Ethnicity Hispanic, 400 mg TID): −1.22 (−11.34, 8.91)
- Change from Baseline in UAS7 at Week 12: Mean (SD) (Ethnicity Hispanic, 400 mg TID): −15.49 (12.69)
- Change from Baseline in UAS7 at Week 12: LS Mean (SE) [19]: −16.16 (2.46)
- Change from Baseline in UAS7 at Week 12: LS Mean Diff vs. placebo (95% CI) [19]: −7.92 (−14.63, −1.20)
- Change from Baseline in UAS7 at Week 12: Mean (SD) [19]: −16.52 (12.39)
- Change from Baseline in UAS7 at Week 12: LS Mean (SE) [20]: 9.79 (2.59)
- Change from Baseline in UAS7 at Week 12: LS Mean Diff vs. placebo (95% CI) [20]: −1.54 (−8.49, 5.41)
